Source: patent publication US11202757B2, “Dry powder compositions for intranasal delivery” (Formulex Pharma Innovations Ltd., priority 2017, dated 2021)
Where a name gives a salt, the structure may show the parent alone.

Test: Particle size analysis (Malvern laser diffraction)
Assay type: physicochemical
Conditions: for size range of the active agent particle population: laser diffraction, active agent population of the composition
Description: (§1) The spray-drying process was carried out using the Mini Spray Dryer B-290 of Büchi Labortechnik AG. A magnetic stirrer (Fried Electric) was placed under the receiver (receiving chamber), a magnetic bar of appropriate size was inserted into the receiver, and then the diluent was added. […] Quantification was performed using HPLC and a Dionex HPLC instrument. A FEI Quanta-200 Scanning Electron Microscope (SEM) equipped with an Everhart-Thornley Detector was used to obtain the images of the spray-dried powder. The accelerating voltage of 20 kV was applied to provide magnification from 250 to 10,000 times. In addition, an X-ray Element Analysis Detector (Link ISIS, Oxford Instruments, GB) was used to determine the drug and particle identity and their distribution throughout DPI. Particle size was measured using the Malvern Mastersizer 3000 series based on the Light Diffraction method.
as §1, with “England)” for “GB)”

[1] = estimated in the range of 0-40 μm

For `C=CCN1CC[C@]23c4c5ccc(O)c4O[C@H]2C(=O)CC[C@@]3(O)[C@H]1C5` [naloxone hydrochloride], the “size range of the active agent particle population” value (“size range” for short) was 5-30 μm.
In the case of `COc1ccc2c3c1O[C@H]1C(=O)CC[C@@]4(O)[C@@H](C2)N(C)CC[C@]314.Cl` [oxycodone hydrochloride], the “size range” value is reported as 3-30 μm.
In the case of `CC(=O)Nc1ccc(O)cc1` [paracetamol], the “size range” value is reported as 2-30 μm.
In the case of `CNS(=O)(=O)Cc1ccc2[nH]cc(CCN(C)C)c2c1` [sumatriptan succinate], the “D(10) of sumatriptan succinate alone” value [1] is reported as 5.2 μm, the “D(50) of sumatriptan succinate alone” value [1] is reported as 11.2 μm and the “D(90) of sumatriptan succinate alone” value [1] is reported as 20.1 μm. The “D(99) of sumatriptan succinate alone” value [1] was 27.1 μm and the “size range” value was 5-25 μm.
In the case of “insulin-sodium chloride: small spherical particles of insulin-sodium chloride in the insulin composition”, the “size range” value is reported as 5-35 μm.
